According to US7875638B2, “Synthesis of epothilones, intermediates thereto, analogues and uses thereof” (Sloan-Kettering Institute for Cancer Research, priority 2002, dated 2011):
“And” between values parts separate entries of the source, which are not always exact repeats. Identical values can stand only once. “Also recorded” adds a separate entry of the source. Like-named read-outs stand apart in the source and are kept apart here.

How the values were obtained:
[1] = test system: A549/taxol cells
Protocol: (§1) Cytotoxicity Assays. In preparation for in vitro cytotoxicity assays, cells were cultured at an initial density 2-5×10^4 cells per milliliter. […] For both methods, the absorbance of each well was measured with a microplate reader (Power Wave XS, Bio-Tek, Winooski, Vt.).

[2] = test system: human mammary carcinoma MX-1 xenograft; experiment: MX-1 xenograft in nude mice
[3] = test system: human colon carcinoma HCT-116 xenograft; experiment: HCT-116 xenograft in nude mice
[4] = test system: human colon carcinoma HCT-116 xenograft
[5] = test system: CCRF-CEM/Taxol; format: cell-based, human; conditions: for IC50: Homo sapiens, CCRF-CEM
[6] = test system: human mammary carcinoma MX-1 xenograft; conditions: 20 mg/kg
[7] = test system: human T-cell lymphoblastic leukemia CCRF-CEM/Taxol xenograft; experiment: CCRF-CEM/Taxol xenograft in nude mice; format: in vivo
[8] = test system: CCRF-CEM; conditions: for Potency compared with EpoB (51): sensitive and resistant cell lines
Protocol: as §1
A typical experiment involves culturing cells (e.g., CCRF-CEM) at an initial density of 2-5×10^4 cells per ml. […] For cells that were grown in suspension (such as CCRF-CEM and its sublines), cytotoxicitiy is measured by using the 2,-3-bis(2-methoxy-4-nitro-5-sulfophenyl)-5 carboxanilide)-2H terazodium hydroxide (XTT)-microculture tetrazonium method in duplicate in 96-well microtiter plates. For both methods, the absorbance of each well is measured with a microplate reader (EL-340, Bio-Tek, Burlington, Vt.). Each run entails six or seven concentrations of the tested drugs. Dose-effect relationship data are analyzed with the median-effect plot.
Cytotoxicity Assays: In preparation for in vitro cytotoxicity assays, cells were cultured at an initial density 2-5×10^4 cells per milliliter. […] For both methods, the absorbance of each well was measured with a microplate reader (Power Wave XS, Bio-Tek, Winooski, Vt.).

[9] = test system: human xenografts in nude mice, such as MX-1; set-up: Relative therapuetic index at MTD: key to the marks not given beside the values; conditions: for Antitumor effect in human solid tumor xenograft models: mouse, in vivo
[10] = in vitro; conditions: mouse, plasma
Protocol: (§2) Stability of epothilones in mouse and in human liver S9 fraction. The stability study was carried out with a fully automated HPLC system which consisted of a Prospekt-2 (Spark Holland, Netherlands) sample preparation system and an Agilent 1100 HPLC system. Briefly, the Prospekt 2 picked up a C8 extraction cartridge and washed it with acetonitrile and water. The Agilent autosampler, set at 37° C., picked up 20 μl of the sample, loaded it onto the cartridge, washed it with water, then the Prospekt-2 diverted the mobile phase stream through the extraction cartridge onto the analytical column, Reliance Stable Bond C8 4×80 mm with guard column (MacMod, Chadds Ford, Pa.) and the eluent was monitored at 250 nm. […] Sample preparation involved the addition of equal volumes of plasma to PBS for a total volume of 300-400 μl, filtered, and the addition of 0.5-2 μl of the substrate (20 mM) to achieve about 30-50 mAU at 250 nm in the HPLC analysis. For pooled human liver microsome S9 fraction (Xeno Tech, Lenex, Kans.), 20 μl (400 μg) or S9 fraction was mixed with 280 μl of PBS then proceeded as above. The sampling period was controlled by the autosampler and peak area data were collected to compare the rate of disappearance of the parent compound.
(§3) Stability of epothilones in mouse and in human liver S9 fraction: The stability study was carried out with a fully automated HPLC system which consisted of a Prospekt-2 (Spark Holland, Netherlands) sample preparation system and an Agilent 1100 HPLC system. Briefly, the Prospekt 2 picked up a C8 extraction cartridge and washed it with acetonitrile and water. The Agilent autosampler, set at 37° C., picked up 20 μl of the sample, loaded it onto the cartridge, washed it with water, then the Prospekt-2 diverted the mobile phase stream through the extraction cartridge onto the analytical column, Reliance Stable Bond C8 4×80 mm with guard column (MacMod, Chadds Ford, Pa.) and the eluent was monitored at 250 nm. […] Sample preparation involves the addition of equal volumes of plasma to PBS for a total volume of 400 μl, filtered, and the addition of 0.5-2 μl of the substrate (20 mM) to achieve about 30-50 mAU at 250 nm in the HPLC analysis. For pooled human liver microsome S9 fraction (Xeno Tech, Lenex, Kans.), 20 μl (400 μg) or S9 fraction was mixed with 280 μl of PBS then proceeds as above. The sampling period was controlled by the autosampler and peak area data were collected to compare the rate of disappearance of the parent compound.

[11] = in vitro; conditions: human, s9
Protocol: as §2, §3

[12] = Solubility in water
[13] = exposure to murine plasma
Protocol: as §2, §3

[14] = 72 h, read-out: IC50, CCRF-CEM/Taxol
[15] = read-out: IC50, CCRF-CEM, XTT assay following 72 h inhibition, Table 1-4

## CC(=O)O[C@H]1C(=O)[C@@]2(C)[C@H]([C@H](OC(=O)c3ccccc3)[C@]3(O)C[C@H](OC(=O)[C@H](O)[C@@H](NC(=O)c4ccccc4)c4ccccc4)C(C)=C1C3(C)C)[C@]1(OC(C)=O)CO[C@@H]1C[C@@H]2O [Paclitaxel, reference compound]
[1]
  Resistance of A549/taxol cells: 44 fold
[2]; oral
  Effect of oral administration on MX-1 xenografts: did not affect the tumor
[3]; Fludelone 20 and 30 mg/kg, Taxol 20 mg/kg
  Tumor relapse during follow-up to D200: tumor relapse occurred on D71, 75, 81 and 81; also recorded: relapses on D71, 75, 81, and 81
[3]; Q2Dx4, 6 hr-i.v. infusion for 3 cycles, F3-deH-dEpoB 20 and 30 mg/kg, Taxol 20 mg/kg
  Tumor disappearance (mice): 4 out of 4
[4]; 20 mg/kg
  Relapse, time after stopping treatment: 1.1 months
[4]; 96 h
  Cell kill: 2.56 log
  Tumor suppression: 99.7%
[5]
  Resistance of CCRF-CEM/Taxol subline: 44 fold
[6]
  Tumor reappeared on day 10 after administration (mice): 2/7
[6]; 6 h
  Tumor free after Q2Dx6 6 hr-iv. infusion (mice): 7/7
[6]; 240 h
  Mice relapsed on day 10 after suspension of treatment: 2/7
[7]; 20 mg/kg
  Final tumor suppression on D34: 75.6%
[7]; 20 mg/kg, 6 hr-i.v. infusion, listed as Taxol
  Therapeutic effect on CCRF-CEM/Taxol xenograft: only partial suppression of tumor growth and failed to achieve tumor shrinkage; also recorded: tumor growth suppression but with little or no tumor shrinkage

## C/C(=C\c1csc(C)n1)[C@@H]1C[C@H]2O[C@@]2(C)CCC[C@H](C)[C@H](O)[C@@H](C)C(=O)C(C)(C)[C@@H](O)CC(=O)O1 [Compound 52]
[5]; [14]
  IC50: 0.151 µM
[8]; [15]
  IC50: 0.083 µM
[8]
  Potency compared with EpoB (51): much lower activity

## [17]ddEpoB [Compound 23, reference compound]
[8]; read-out: CCRF-CEM (IC50 (μM)), XTT assay following 72 h inhibition, Table 1-1
  IC50: 0.04 µM

## C/C(=C\c1csc(C)n1)[C@@H]1C[C@@H]2O[C@]2(C)C/C=C/[C@H](C)[C@H](O)[C@@H](C)C(=O)C(C)(C)[C@@H](O)CC(=O)O1 [Compound 49, (E)-9,10-dehydroepothilone B]
[2]; 0.4-0.6 mg/kg, every three days 9-11 times, 6 hour iv infusion
  Therapeutic effect on MX-1 xenograft: shrinkage and disappearance of the tumor
[2]; every other day for 8 doses
  Therapeutic effect on MX-1 xenograft: tumor growth suppression but no shrinkage of the tumor
[2]; every other day for 9 doses, second to eighth day
  Body weight recovery, % of the control: 76% to 82%
[3]; 0.6 mg/kg, Q2Wx6, 6 hour infusion
  Mice died of toxicity within three days after the sixth dosage: four out of four
[5]; XTT assay following 72 h inhibition, Table 1-4, read-out: IC50, CCRF-CEM/Taxol
  IC50: 0.00042 µM
[8]
  IC50 in vitro (FIG. 94): sub-nanomolar
  Potency compared with EpoB (51): ~3 fold and 2-4 fold
[8]; [15]
  IC50: 0.00023 µM
[9]
  Antitumor effect in human solid tumor xenograft models: strongly suppressed tumor growth
[7]; 0.6 mg/kg, Q3Dx5,x2
  Therapeutic effect on CCRF-CEM/Taxol xenograft: abolished tumor growth

## C/C(=C\c1csc(C)n1)[C@@H]1C[C@@H]2O[C@]2(C)CCC[C@H](C)[C@H](O)[C@@H](C)C(=O)C(C)(C)[C@@H](O)CC(=O)O1 [Compound 51, Epothilone B, reference compound]
[10]
  half-life: 0.95 h
[5]; [14]
  IC50: 0.0011 µM
[8]
  IC50 in vitro (FIG. 94): sub-nanomolar
[8]; read-out: Cytotoxic Efficacy IC50, CCRF-CEM leukemic cells, range of two experiments, seven concentration points
  IC50: 0.00053 ± 0.0002 µM
[8]; [15]
  IC50: 0.00062 µM
[11]
  half-life: 15.8 h
[9]; Q2D 6 hr-iv infusion
  Therapeutic dose regimen for Q2D 6 hr-iv infusion: 0.6 to 0.8 mg/kg
[9]; graded at maximal tolerated dose
  Relative therapuetic index at MTD: +++
[9]; nude mice
  Maximal b.w. % drop without death: 15%

## C/C1=C/C[C@@H](/C(C)=C/c2csc(CO)n2)OC(=O)C[C@H](O)C(C)(C)C(=O)[C@H](C)[C@@H](O)[C@@H](C)/C=C/C1 [Compound 57, 9,10-dehydro-dEpoF]
[12]
  Water solubility relative to other epothilones: greatly increased water solubility
[13]
  Slower drug degradation in murine plasma as compared to dEpoB (1), factor: ca. 7
[5]; XTT assay following 72 h inhibition, Table 1-2, read-out: IC50 (μM), CCRF-CEM/Taxol
  IC50: 0.00073 µM
[8]
  IC50 in vitro (FIG. 94): sub-nanomolar
[8]; read-out: IC50 (μM), CCRF-CEM, XTT assay following 72 h inhibition, Table 1-2
  IC50: 0.00051 µM
[9]
  Antitumor effect in human solid tumor xenograft models: strongly suppressed tumor growth
